According to US20220288052A1, “COMPOUND FOR COMBINATION TREATMENT” (priority 2019, published 2022):
pIC50, pKi: −log10 of the molar value. Like-named read-outs stand apart in the source and are kept apart here.

Key:
[1] = Metabolic stability in liver microsomes, dog; assay type: in vitro ADME
Description: (§1) The metabolic stability of compound (I) was tested in liver microsomes from all in house available species at 1 and 5 μM. One metabolite of 16 mass units higher than parent, was found in all incubations, except with human liver microsomes.

NET = NET (Homo sapiens, UniProt P23975); assay: MDS LeadProfilingScreen, NET; assay type: binding
NET, sequence (P23975 whole entry): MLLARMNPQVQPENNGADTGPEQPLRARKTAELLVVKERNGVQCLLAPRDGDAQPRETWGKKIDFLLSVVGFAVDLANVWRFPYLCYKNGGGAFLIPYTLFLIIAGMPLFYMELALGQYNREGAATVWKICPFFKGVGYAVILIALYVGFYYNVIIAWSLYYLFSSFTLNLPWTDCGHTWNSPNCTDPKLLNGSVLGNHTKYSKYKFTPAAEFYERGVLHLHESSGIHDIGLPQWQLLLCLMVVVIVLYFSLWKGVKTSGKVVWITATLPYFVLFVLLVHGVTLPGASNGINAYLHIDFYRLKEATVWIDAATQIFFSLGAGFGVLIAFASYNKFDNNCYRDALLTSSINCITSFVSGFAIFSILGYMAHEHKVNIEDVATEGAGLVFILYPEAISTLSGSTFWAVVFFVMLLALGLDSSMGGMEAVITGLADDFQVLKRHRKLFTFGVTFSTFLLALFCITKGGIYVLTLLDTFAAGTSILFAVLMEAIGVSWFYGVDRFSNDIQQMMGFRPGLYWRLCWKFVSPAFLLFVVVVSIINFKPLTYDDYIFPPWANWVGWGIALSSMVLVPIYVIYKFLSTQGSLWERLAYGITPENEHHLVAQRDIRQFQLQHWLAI

Sigma σ1 = Sigma σ1 (Homo sapiens, UniProt Q99720); assay: MDS LeadProfilingScreen, Sigma σ1; assay type: binding
Sigma σ1, sequence (Q99720 whole entry): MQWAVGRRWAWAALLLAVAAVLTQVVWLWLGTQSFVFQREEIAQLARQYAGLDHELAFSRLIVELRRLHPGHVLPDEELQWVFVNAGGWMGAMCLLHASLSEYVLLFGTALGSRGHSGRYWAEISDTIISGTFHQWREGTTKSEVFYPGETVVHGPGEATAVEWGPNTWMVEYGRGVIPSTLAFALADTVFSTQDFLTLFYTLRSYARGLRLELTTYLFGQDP

[2] = test system: brain levels of noradrenalin (NA); assay: In vivo microdialysis, NA; design: species or system rat
Description: The purpose of the present study was to examine, by in vivo microdialysis technique, the effects after administration of compound (I) on brain levels of serotonin, noradrenalin and dopamine within the ventral hippocampus (Hipp), prefrontal cortex (PFC), striatum (STR) and nucleus accumbens (N.Acc) of anaesthetized rats and mice. Compound (I) represents dual acting serotonin/dopamine reuptake inhibitors and was tested in comparison to citalopram a selective serotonin uptake inhibitor. Compound (I) was tested following subcutaneous injections at dose levels between 0.25-30 mg/kg. […] Pre-treatment with the 5-HT1A autoreceptor antagonist WAY-100635 induced a further minor increase of the compound (I) (0.25 mg/kg) induced increase in the PFC level of 5-HT.

CYP1A2 = CYP1A2 (Homo sapiens, UniProt P05177); assay: CYP450 inhibition, cocktail of selective substrates, 1A2; assay type: in vitro ADME; details: CYP 1A2, Phenacetin to Paracetamol; read-out: IC50 of compound (I)
CYP1A2, sequence (P05177 whole entry): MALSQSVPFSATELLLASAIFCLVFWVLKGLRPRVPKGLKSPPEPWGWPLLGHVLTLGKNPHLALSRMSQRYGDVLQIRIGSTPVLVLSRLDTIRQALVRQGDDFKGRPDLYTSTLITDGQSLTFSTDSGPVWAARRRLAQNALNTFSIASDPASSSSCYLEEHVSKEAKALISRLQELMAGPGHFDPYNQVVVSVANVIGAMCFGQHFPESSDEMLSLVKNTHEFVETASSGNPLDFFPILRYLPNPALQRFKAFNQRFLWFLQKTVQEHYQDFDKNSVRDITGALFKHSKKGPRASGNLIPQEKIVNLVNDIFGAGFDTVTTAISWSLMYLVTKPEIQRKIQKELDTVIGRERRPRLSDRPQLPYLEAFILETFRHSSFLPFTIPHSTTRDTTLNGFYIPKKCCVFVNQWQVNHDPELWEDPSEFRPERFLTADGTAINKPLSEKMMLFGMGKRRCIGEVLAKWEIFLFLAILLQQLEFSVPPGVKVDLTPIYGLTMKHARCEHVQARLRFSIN
Description: (§2) Compound (I) was tested for CYP450 inhibition using a cocktail of selective substrates. […] This might be addressed later in a clinical study.

mice erectile tissue = assay: Penile flow by laser doppler in mice; assay type: in vivo, mouse
Description: FIG. 33: Flow laser doppler raw data from mice erectile function (top), and average flow changes (EF) in mice erectile tissue (bottom). The increase in penile flow induced by compound (I) (1 mg/kg) was highly significant and increased 4.99 times, n=2.
A laser doppler flow probe was positioned in situ in mice erectile tissue for measurement of penile basal flow in the absence and the presence of compound (I).

DAT = DAT (Homo sapiens, UniProt Q01959); assay: MDS LeadProfilingScreen, DAT; assay type: binding
DAT, sequence (Q01959 whole entry): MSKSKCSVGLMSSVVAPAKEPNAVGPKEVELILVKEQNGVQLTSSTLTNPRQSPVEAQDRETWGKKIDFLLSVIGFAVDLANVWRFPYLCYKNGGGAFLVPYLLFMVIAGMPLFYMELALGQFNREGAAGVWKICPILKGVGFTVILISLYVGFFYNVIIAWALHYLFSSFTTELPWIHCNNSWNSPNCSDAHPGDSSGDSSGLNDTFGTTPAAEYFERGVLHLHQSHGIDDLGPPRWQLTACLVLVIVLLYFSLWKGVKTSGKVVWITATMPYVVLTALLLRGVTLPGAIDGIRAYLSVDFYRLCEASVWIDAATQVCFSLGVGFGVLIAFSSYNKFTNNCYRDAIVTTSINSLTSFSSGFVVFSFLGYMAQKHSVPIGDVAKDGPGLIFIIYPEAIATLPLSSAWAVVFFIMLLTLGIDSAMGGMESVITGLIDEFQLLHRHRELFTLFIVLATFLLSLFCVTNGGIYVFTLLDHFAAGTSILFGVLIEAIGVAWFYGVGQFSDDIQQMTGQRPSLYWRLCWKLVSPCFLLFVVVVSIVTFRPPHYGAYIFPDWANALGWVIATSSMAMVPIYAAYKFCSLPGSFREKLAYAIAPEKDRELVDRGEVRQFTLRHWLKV

[3] = Metabolic stability in liver microsomes, guinea pig; assay type: in vitro ADME
Description: as §1

[4] = Exposure and tissue distribution after 14 days repeat dosing, mouse; assay type: in vivo; details: for concentration at 2 h / Kp at 2 h: mouse, po, 2 h post last dose
Description: Single time point data is available from two 14 days repeat dose studies in mice and rats dosed to both sexes. The three low doses were performed together as one study and the top dose was performed at another occasion as a satellite study.
Samples were taken 2 h post last dose.
Plasma, brain and liver were taken 2 h post last dose.

C57 mice = assay: Mouse tail suspension test (mTST); assay type: in vivo; details: i.p. 30 min
Description: C57 males, 25-28 g, Taconic, 16/8-06. Mice acclimatized to ground floor 5 days before testing. Mice saline injected once a day twice before test day. 22° C., N=7-8.

CYP 2D6 = CYP 2D6 (Homo sapiens, UniProt P10635); assay: CYP450 inhibition, cocktail of selective substrates, 2D6; assay type: in vitro ADME; details: CYP 2D6, Bufuralol to 1′-hydroxybufuralol; read-out: IC50 of compound (I)
CYP 2D6, sequence (P10635 whole entry): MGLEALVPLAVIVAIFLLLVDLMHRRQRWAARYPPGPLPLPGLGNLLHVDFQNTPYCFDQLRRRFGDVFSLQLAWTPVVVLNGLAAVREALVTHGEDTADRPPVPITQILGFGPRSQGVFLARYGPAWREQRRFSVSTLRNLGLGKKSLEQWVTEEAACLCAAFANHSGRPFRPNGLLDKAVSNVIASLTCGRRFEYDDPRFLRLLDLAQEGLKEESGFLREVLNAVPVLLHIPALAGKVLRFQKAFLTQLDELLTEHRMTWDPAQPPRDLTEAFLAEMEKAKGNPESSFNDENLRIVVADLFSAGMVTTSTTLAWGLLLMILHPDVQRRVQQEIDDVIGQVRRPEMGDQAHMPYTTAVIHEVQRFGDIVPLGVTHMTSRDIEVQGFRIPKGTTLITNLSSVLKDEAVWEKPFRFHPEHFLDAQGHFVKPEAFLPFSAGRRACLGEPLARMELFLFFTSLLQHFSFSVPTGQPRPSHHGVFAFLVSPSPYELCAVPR
Description: as §2

Nicotinic α3β4 = Nicotinic α3β4 (Homo sapiens, UniProt P30926+P32297); assay: Selectivity screen, Nicotinic α3β4; assay type: binding
Nicotinic α3β4, sequence (P32297 32-505): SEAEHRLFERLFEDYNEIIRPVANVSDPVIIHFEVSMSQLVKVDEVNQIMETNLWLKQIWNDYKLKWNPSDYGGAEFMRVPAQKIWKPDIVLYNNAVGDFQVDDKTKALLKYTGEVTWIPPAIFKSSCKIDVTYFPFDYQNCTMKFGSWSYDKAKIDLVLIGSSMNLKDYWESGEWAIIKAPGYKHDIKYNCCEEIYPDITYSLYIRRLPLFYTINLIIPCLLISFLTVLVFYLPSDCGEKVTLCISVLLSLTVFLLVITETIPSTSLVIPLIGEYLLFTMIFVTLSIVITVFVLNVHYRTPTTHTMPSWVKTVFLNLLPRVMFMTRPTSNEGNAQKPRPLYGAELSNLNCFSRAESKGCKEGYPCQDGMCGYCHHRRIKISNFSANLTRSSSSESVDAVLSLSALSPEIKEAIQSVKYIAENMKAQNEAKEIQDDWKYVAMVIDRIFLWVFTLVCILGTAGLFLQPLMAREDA
Nicotinic α3β4, sequence (P30926 22-498): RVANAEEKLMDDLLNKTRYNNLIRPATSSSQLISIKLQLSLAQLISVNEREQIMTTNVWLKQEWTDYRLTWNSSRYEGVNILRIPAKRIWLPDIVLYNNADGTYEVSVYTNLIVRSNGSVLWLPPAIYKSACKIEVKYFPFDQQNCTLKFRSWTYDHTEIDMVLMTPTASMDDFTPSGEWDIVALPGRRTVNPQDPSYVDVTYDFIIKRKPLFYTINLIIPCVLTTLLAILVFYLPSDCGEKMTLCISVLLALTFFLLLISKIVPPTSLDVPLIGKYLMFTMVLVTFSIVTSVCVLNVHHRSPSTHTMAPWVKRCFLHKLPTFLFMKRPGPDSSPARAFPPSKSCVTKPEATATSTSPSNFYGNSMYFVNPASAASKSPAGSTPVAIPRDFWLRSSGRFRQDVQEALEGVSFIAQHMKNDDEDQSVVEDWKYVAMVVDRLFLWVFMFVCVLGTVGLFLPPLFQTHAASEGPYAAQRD

O=c1ccc2ccc(O[C@@H]3C[C@H]4CC[C@@H](C3)N4)cc2o1 [Compound (I), exo-7-(8-aza-bicyclo[3.2.1]oct-3-yloxy)-chromen-2-one]
Stability at 1 μM [1]: 100%
Stability at 5 μM [1]: 90%
pKi (NET): 6.23
inhibition at 10 µM (NET; NET, Human, 10 μM): 92%
inhibition at 10 µM (Sigma σ1): 59%
NA (AUC0-160 min) ([2]; Hippocampus, 3 mg/kg s.c., 3 mg/kg): 138±13%
NA (AUC0-160 min) ([2]; Pre-frontal cortex, 10 mg/kg s.c., 10 mg/kg): 135±4%
pIC50 (CYP1A2): 5.46
Increase in penile flow (mice erectile tissue; 1 mg/kg, n=2): 4.99 times
Penile flow (mice erectile tissue; infusion of 1 mg/kg): markedly increased
pKi (DAT): 6.81
inhibition at 10 µM (DAT; DAT, Human, 10 μM): 97%
Stability at 1 μM [3]: 98%
Stability at 5 μM [3]: 82%
concentration at 2 h ([4]; NMRI, brain, Female mice, 15 mg/kg p.o. 14 days, read-out: Brain concentration): 2640 ng/g
Kp at 2 h ([4]; NMRI, brain, Female mice, 15 mg/kg p.o. 14 days, read-out: Brain/plasma ratio): 7
concentration at 2 h ([4]; NMRI, brain, Female mice, 30 mg/kg p.o. 14 days, read-out: Brain concentration): 7070 ng/g
Kp at 2 h ([4]; NMRI, brain, Female mice, 30 mg/kg p.o. 14 days, read-out: Brain/plasma ratio): 6
concentration at 2 h ([4]; NMRI, brain, Female mice, 60 mg/kg p.o. 14 days, read-out: Brain concentration): 11500 ng/g
Kp at 2 h ([4]; NMRI, brain, Female mice, 60 mg/kg p.o. 14 days, read-out: Brain/plasma ratio): 6
concentration at 2 h ([4]; NMRI, brain, Female mice, 90 mg/kg p.o. 14 days, read-out: Brain concentration): 17100 ng/g
concentration at 2 h ([4]; NMRI, brain, Male mice, 15 mg/kg p.o. 14 days, read-out: Brain concentration): 1970 ng/g
Kp at 2 h ([4]; NMRI, brain, Male mice, 15 mg/kg p.o. 14 days, read-out: Brain/plasma ratio): 7
concentration at 2 h ([4]; NMRI, brain, Male mice, 30 mg/kg p.o. 14 days, read-out: Brain concentration): 4720 ng/g
Kp at 2 h ([4]; NMRI, brain, Male mice, 30 mg/kg p.o. 14 days, read-out: Brain/plasma ratio): 6
concentration at 2 h ([4]; NMRI, brain, Male mice, 60 mg/kg p.o. 14 days, read-out: Brain concentration): 8080 ng/g
Kp at 2 h ([4]; NMRI, brain, Male mice, 60 mg/kg p.o. 14 days, read-out: Brain/plasma ratio): 6
concentration at 2 h ([4]; NMRI, brain, Male mice, 90 mg/kg p.o. 14 days, read-out: Brain concentration): 21100 ng/g
Kp at 2 h ([4]; NMRI, in vivo, Female mice, 15 mg/kg p.o. 14 days, read-out: Liver/plasma ratio): 18
Kp at 2 h ([4]; NMRI, in vivo, Female mice, 30 mg/kg p.o. 14 days, read-out: Liver/plasma ratio): 18
Kp at 2 h ([4]; NMRI, in vivo, Female mice, 60 mg/kg p.o. 14 days, read-out: Liver/plasma ratio): 21
Kp at 2 h ([4]; NMRI, in vivo, Male mice, 15 mg/kg p.o. 14 days, read-out: Liver/plasma ratio): 28
Kp at 2 h ([4]; NMRI, in vivo, Male mice, 30 mg/kg p.o. 14 days, read-out: Liver/plasma ratio): 17
Kp at 2 h ([4]; NMRI, in vivo, Male mice, 60 mg/kg p.o. 14 days, read-out: Liver/plasma ratio): 12
concentration at 2 h ([4]; NMRI, liver, Female mice, 15 mg/kg p.o. 14 days, read-out: Liver concentration): 7160 ng/g
concentration at 2 h ([4]; NMRI, liver, Female mice, 30 mg/kg p.o. 14 days, read-out: Liver concentration): 22500 ng/g
concentration at 2 h ([4]; NMRI, liver, Female mice, 60 mg/kg p.o. 14 days, read-out: Liver concentration): 42000 ng/g
concentration at 2 h ([4]; NMRI, liver, Male mice, 15 mg/kg p.o. 14 days, read-out: Liver concentration): 8220 ng/g
concentration at 2 h ([4]; NMRI, liver, Male mice, 30 mg/kg p.o. 14 days, read-out: Liver concentration): 12700 ng/g
concentration at 2 h ([4]; NMRI, liver, Male mice, 60 mg/kg p.o. 14 days, read-out: Liver concentration): 17700 ng/g
concentration at 2 h ([4]; NMRI, plasma, Female mice, 15 mg/kg p.o. 14 days, read-out: Plasma concentration): 390 ng/mL
concentration at 2 h ([4]; NMRI, plasma, Female mice, 30 mg/kg p.o. 14 days, read-out: Plasma concentration): 1280 ng/mL
concentration at 2 h ([4]; NMRI, plasma, Female mice, 60 mg/kg p.o. 14 days, read-out: Plasma concentration): 2000 ng/mL
concentration at 2 h ([4]; NMRI, plasma, Male mice, 15 mg/kg p.o. 14 days, read-out: Plasma concentration): 289 ng/mL
concentration at 2 h ([4]; NMRI, plasma, Male mice, 30 mg/kg p.o. 14 days, read-out: Plasma concentration): 762 ng/mL
concentration at 2 h ([4]; NMRI, plasma, Male mice, 60 mg/kg p.o. 14 days, read-out: Plasma concentration): 1420 ng/mL
Linearity of kinetics after repeat dosing ([4]; mice, 15-90 mg/kg p.o. 14 days, 5% glucose): tendency to sub-linear kinetics
Kp at 2 h ([4]; brain, Female mice, 90 mg/kg p.o. 14 days, read-out: Brain/plasma ratio): 4
Kp at 2 h ([4]; brain, Male mice, 90 mg/kg p.o. 14 days, read-out: Brain/plasma ratio): 4
Kp at 2 h ([4]; in vivo, Female mice, 90 mg/kg p.o. 14 days, read-out: Liver/plasma ratio): 16
Kp at 2 h ([4]; in vivo, Male mice, 90 mg/kg p.o. 14 days, read-out: Liver/plasma ratio): 16
concentration at 2 h ([4]; liver, Female mice, 90 mg/kg p.o. 14 days, read-out: Liver concentration): 63300 ng/g
concentration at 2 h ([4]; liver, Male mice, 90 mg/kg p.o. 14 days, read-out: Liver concentration): 75000 ng/g
concentration at 2 h ([4]; plasma, Female mice, 90 mg/kg p.o. 14 days, read-out: Plasma concentration): 3980 ng/mL
concentration at 2 h ([4]; plasma, Male mice, 90 mg/kg p.o. 14 days, read-out: Plasma concentration): 4730 ng/mL
MED (C57 mice): <5 mg/kg
pIC50 (CYP 2D6): 4.36
pKi (Nicotinic α3β4): 5.30
Separation to transporter hDAT (Nicotinic α3β4; Nicotinic acetylcholine Ki versus hDAT Ki 155 nM): x32
Separation to transporter hNET (Nicotinic α3β4; Nicotinic acetylcholine Ki versus hNET Ki 594 nM): x8.5
inhibition at 10 µM (Nicotinic α3β4; Nicotinic α3β4, Human, 10 μM): 57%
